The test system of data set [1] is Leishmania amazonensis. Kind of data set: Antileishmanial activity against Leishmania […] MHOM/IN/80/DD8 promastigotes assessed as reduction in parasites for 48 hrs by resazurin dye based assay. Format: functional, organism-based. To be noted: MHOM/IN/80/DD8, 48 h.
Data set [2] concerns Leishmania donovani. The data set can be described thus: Antileishmanial activity against Leishmania donovani MHOM/Br/79/Maria amastigotes infected in mouse J774 cells assessed as reduction in parasites for 48 hrs by resazurin dye based assay. Format: functional, organism-based. The following applies: J774, 48 h.
The test system of data set [3] is Leishmania amazonensis. Kind of data set: Antileishmanial activity against Leishmania […] MHOM/IN/80/DD8 amastigotes infected in mouse J774 cells assessed as reduction in parasites for 48 hrs by resazurin dye based assay. Format: functional, organism-based. To be noted: MHOM/IN/80/DD8, J774, 48 h.
Data set [4] is described as follows: Selectivity index, ratio of CC50 for mouse J774 cells to IC50 for antileishmanial activity against Leishmania donovani MHOM/Br/79/Maria promastigotes by resazurin dye based assay. Format: toxicity. The following applies: read-out: Selectivity Index.
Data set [5] in a line: Selectivity index, ratio of CC50 for mouse J774 cells to IC50 for antileishmanial activity against Leishmania […] MHOM/IN/80/DD8 promastigotes by resazurin dye based assay. Format: toxicity. The following applies: read-out: Selectivity Index.
The test system of the next data set is J774. The data set can be described thus: Cytotoxicity against mouse J774 cells assessed as reduction in cell viability after 24 hrs by resazurin dye based assay. Format: functional.
Data set [6] can be described thus: Selectivity index, ratio of CC50 for mouse J774 cells to IC50 for antileishmanial activity against Leishmania […] MHOM/IN/80/DD8 amastigotes by resazurin dye based assay. To be noted: read-out: Selectivity Index. It counts as toxicity.
Data set [7] is described as follows: Selectivity index, ratio of CC50 for mouse J774 cells to IC50 for antileishmanial activity against Leishmania donovani MHOM/Br/79/Maria amastigotes by resazurin dye based assay. To be noted: read-out: Selectivity Index. It counts as toxicity.
In data set [8] the test system is Leishmania donovani. Kind of data set: Antileishmanial activity against Leishmania donovani MHOM/Br/79/Maria promastigotes assessed as reduction in parasites for 48 hrs by resazurin dye based assay. Format: functional, organism-based.

As to `CCCCCCCCCCCCCCCCOP(=O)([O-])OCC[N+](C)(C)C` [MILTEFOSINE], the IC50 with Leishmania amazonensis [1] was 30.7 µM; in the data set with Leishmania donovani [2], 0.37 µM; in the data set with Leishmania amazonensis [3], 47.6 µM. Also, the selectivity ratio in [4] is 906; in data set [5], 4.43; in data set [6] it was 2.85; in [7] it was 369. Further, in the data set with J774, the CC50 was determined as 136 µM.
For the compound `CC1(Cc2ccc([N+](=O)[O-])cc2)c2ccccc2Cn2cccc21` (stereo not drawn), the IC50 with Leishmania amazonensis [1] was found to be 157 µM; with Leishmania donovani [8], 159 µM. The results for the selectivity ratio in [4] and in data set [5] were > 1.97 and > 2, respectively. Moreover, the CC50 in the data set on J774 was ≥ 314 µM.
For `CC1(CC#N)c2cc3c(cc2Cn2cccc21)OCO3` (stereo not drawn) the same measures were 77.4 µM, 120 µM, > 3.13, > 4.85 and ≥ 376 µM.
For `COc1cc2c(cc1OC)C(C)(Cc1cc(C(F)(F)F)cc(C(F)(F)F)c1)c1cccn1C2` (stereo not drawn), the figures for the concentration for half-maximal inhibition (IC50) with Leishmania amazonensis [1] and with Leishmania donovani [8] were 39.6 µM and 111 µM, respectively. Also, the selectivity ratio was determined as 0.42 in [4] and 1.18 in data set [5]. Further, the half-maximal cytotoxic concentration (CC50) in the data set with J774 stood at 46.8 µM.
For the compound `COc1ccc(CC2(C)c3cc(OC)c(OC)cc3Cn3cccc32)cc1OC` (stereo not drawn), the IC50 in the data set on Leishmania amazonensis [1] amounted to 3.3 µM; in the data set with Leishmania donovani [2], 46.3 µM; with Leishmania amazonensis [3], 60.8 µM; in the data set with Leishmania donovani [8], 38.3 µM. Besides, the selectivity ratio in data set [4] is > 6.63; in data set [5] it was > 77; in [6], > 4.18; in data set [7], > 5.49. Further, the half-maximal cytotoxic concentration (CC50) in the data set on J774 was ≥ 254 µM.
Turning to `COc1cc2c(cc1OCc1ccccc1)Cn1cccc1C2(C)CC#N` (stereo not drawn), the half-inhibitory concentration (IC50) in the data set with Leishmania amazonensis [1] came out at 24.8 µM; with Leishmania donovani [8] it was 34.4 µM. Further, the selectivity ratio in data set [4] was 5.68; in data set [5], 7.86. In the data set with J774, the CC50 came out at 195 µM.
In the same order, the values of `CC1(CC#N)c2ccc(F)cc2Cn2cccc21` (stereo not drawn) are 96.5 µM, 192 µM, > 2.17, > 4.31 and ≥ 416 µM.
For `COc1cc2c(cc1OC)C(C)(CC#N)c1cccn1C2` (stereo not drawn) the same measures were 309 µM, 226 µM, > 1.57, > 1.14 and ≥ 354 µM.
`COc1ccc(OC)c2c1Cn1cccc1C2(C)CC#N` (stereo not drawn): the concentration for half-maximal inhibition (IC50) with Leishmania amazonensis [1] is 93.9 µM. Also, in data set [5], the selectivity ratio is > 3.77. Moreover, the half-maximal cytotoxic concentration (CC50) in the data set on J774 was ≥ 354 µM.
Regarding `COc1ccc2c(c1)Cn1cccc1C2(C)CC#N` (stereo not drawn), the IC50 in the data set with Leishmania amazonensis [1] stood at 123 µM; in the data set on Leishmania donovani [8], 360 µM. Further, the selectivity ratio in data set [4] is > 1.1; in data set [5] it was > 3.21. Moreover, the 50% cytotoxic concentration (CC50) in the data set with J774 is ≥ 396 µM.
As to `COc1cc2c(cc1OC)C(C)(C/C=C/c1ccccc1)c1cccn1C2` (stereo not drawn), the IC50 with Leishmania amazonensis [1] was determined as 12.2 µM; with Leishmania donovani [2] it was 16.7 µM; in the data set with Leishmania amazonensis [3], 69.3 µM; in the data set on Leishmania donovani [8] it was 33.7 µM. For the same compound, the selectivity ratio in [4] was > 8.27; in data set [5], > 23; in data set [6], > 4.02; in data set [7], > 16.6. For the same compound, the CC50 with J774 is ≥ 278 µM.
Take `COc1ccc2c(c1OC)Cn1cccc1C2(C)CC#N` (stereo not drawn): the IC50 in the data set on Leishmania amazonensis [1] came to 171 µM. Moreover, the selectivity ratio in data set [5] is > 2.07. In addition, in the data set with J774, the CC50 was ≥ 354 µM.
With `CC1(Cc2ccc([N+](=O)[O-])cc2)c2cc3c(cc2Cn2cccc21)OCO3` (stereo not drawn), the 50% inhibitory concentration (IC50) in the data set with Leishmania amazonensis [1] worked out at 8 µM; in the data set on Leishmania donovani [2], 68.7 µM; in the data set with Leishmania amazonensis [3], 77.1 µM; with Leishmania donovani [8] it was 30.4 µM. The selectivity ratio in data set [4] was > 9.09; in [5], > 34.5; in [6], > 3.58; in [7], > 4.02. For the same compound, the cytotoxic concentration (CC50) in the data set with J774 was ≥ 276 µM.
Take `COc1ccc(CC2(C)c3cc(OC)c(OC)cc3Cn3cccc32)cc1` (stereo not drawn): the 50% inhibitory concentration (IC50) with Leishmania amazonensis [1] worked out at 26.4 µM; in the data set on Leishmania donovani [2] it was 45 µM; in the data set with Leishmania amazonensis [3], 51.6 µM; in the data set on Leishmania donovani [8] it was 47.4 µM. Further, the selectivity ratio in data set [4] was > 5.8; in [5], > 10.4; in data set [6] it was > 5.34; in data set [7], > 6.12. The 50% cytotoxic concentration (CC50) in the data set on J774 is ≥ 275 µM.
As to `COc1cc2c(cc1OC)C(C)(Cc1ccccc1)c1cccn1C2` (stereo not drawn), the IC50 amounted to 17.1 µM in the data set on Leishmania amazonensis [1], 55 µM in the data set with Leishmania donovani [2], 33.6 µM in the data set with Leishmania amazonensis [3] and 30.3 µM in the data set with Leishmania donovani [8]. Moreover, the selectivity ratio is > 10.1 in [4], > 17.5 in data set [5], > 8.93 in data set [6] and > 5.45 in data set [7]. In addition, the CC50 in the data set on J774 is ≥ 300 µM.
Consider `C=CCC1(C)c2cc(OC)c(OC)cc2Cn2cccc21` (stereo not drawn), for which the IC50 was determined as 23.3 µM in the data set on Leishmania amazonensis [1], 256 µM in the data set on Leishmania donovani [2], 43.5 µM with Leishmania amazonensis [3] and 124 µM in the data set with Leishmania donovani [8]. The selectivity ratio was > 2.84 in [4], > 15.2 in data set [5], > 8.1 in data set [6] and > 1.38 in data set [7]. In addition, in the data set with J774, the CC50 is ≥ 353 µM.
As to `COc1cc2c(cc1OC)C(Cc1ccc([N+](=O)[O-])cc1)(C(F)(F)F)c1cccn1C2` (stereo not drawn), the IC50 turned out to be 3.93 µM in the data set with Leishmania amazonensis [1], 22.2 µM with Leishmania donovani [2], 56.7 µM in the data set with Leishmania amazonensis [3] and 16.4 µM in the data set with Leishmania donovani [8]. Further, the selectivity ratio in [4] is > 14.1; in [5], > 58.8; in data set [6], > 4.08; in data set [7], > 10.4. In addition, the CC50 in the data set on J774 is ≥ 231 µM.
For `COc1cc2c(cc1OC)C(C)(Cc1ccc([N+](=O)[O-])cc1)c1cccn1C2` (stereo not drawn), the IC50 was found to be 18 µM with Leishmania amazonensis [1], 29.6 µM in the data set on Leishmania donovani [2], 56.1 µM with Leishmania amazonensis [3] and 79.9 µM in the data set with Leishmania donovani [8]. Moreover, the selectivity ratio in [4] is > 3.31; in data set [5], > 14.7; in [6], > 4.7; in [7], > 8.92. For the same compound, in the data set on J774, the CC50 is ≥ 264 µM.
Regarding `COc1cc2c(cc1OC)C(C)(Cc1cc3ccc4cccc5ccc(c1)c3c45)c1cccn1C2` (stereo not drawn), the IC50 with Leishmania amazonensis [1] came to 36.7 µM; in the data set on Leishmania donovani [8] it was 86 µM. Further, the selectivity ratio in [4] is > 2.54; in data set [5], > 5.95. Moreover, the CC50 in the data set on J774 is ≥ 219 µM.
On to `CC1(CC#N)c2ccc(OCc3ccccc3)cc2Cn2cccc21` (stereo not drawn), for which the 50% inhibitory concentration (IC50) came out at 15.8 µM in the data set on Leishmania amazonensis [1], 44.8 µM in the data set with Leishmania donovani [2] and 60.2 µM with Leishmania donovani [8]. Also, the selectivity ratio was 3.69 in data set [4], 14 in data set [5] and 4.97 in data set [7]. The CC50 in the data set on J774 was 222 µM.

Source of the values: ChEMBL document CHEMBL4837195, “Palladium-mediated synthesis and biological evaluation of C-10b substituted Dihydropyrrolo[1,2-b]isoquinolines as antileishmanial agents” (Eur J Med Chem, 2021).
